Assay results taken from US20250171462A1 (NICO Therapeutics, Inc., priority 2022, published 2025).
Like-named read-outs stand apart in the source and are kept apart here.

Target: T1, full-length SARM1 (FL-SARM1) (Homo sapiens, UniProt Q6SZW1)
T1 sequence (Q6SZW1 28-724): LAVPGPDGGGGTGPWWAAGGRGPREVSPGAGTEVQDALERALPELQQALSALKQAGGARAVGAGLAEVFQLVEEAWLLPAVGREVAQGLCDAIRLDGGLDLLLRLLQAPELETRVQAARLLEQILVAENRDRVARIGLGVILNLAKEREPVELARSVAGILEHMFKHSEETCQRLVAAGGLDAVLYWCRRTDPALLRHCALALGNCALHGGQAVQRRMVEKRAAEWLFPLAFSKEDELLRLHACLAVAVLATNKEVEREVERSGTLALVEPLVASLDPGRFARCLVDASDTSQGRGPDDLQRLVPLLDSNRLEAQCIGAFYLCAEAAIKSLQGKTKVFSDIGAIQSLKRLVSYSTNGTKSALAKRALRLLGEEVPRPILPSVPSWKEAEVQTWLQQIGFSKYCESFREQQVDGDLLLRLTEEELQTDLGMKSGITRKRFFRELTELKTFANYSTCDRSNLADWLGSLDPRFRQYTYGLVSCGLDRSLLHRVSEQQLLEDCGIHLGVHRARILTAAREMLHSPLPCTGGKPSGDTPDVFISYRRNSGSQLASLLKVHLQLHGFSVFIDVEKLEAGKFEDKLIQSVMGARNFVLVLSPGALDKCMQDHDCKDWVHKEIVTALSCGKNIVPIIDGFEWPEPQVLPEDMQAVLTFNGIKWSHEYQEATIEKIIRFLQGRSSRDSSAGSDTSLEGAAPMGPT
Assay: FL-SARM1 cellular lysate assay (NAD/NADH-Glo detection of remaining NAD+, NMN-activated)

[1] = Activity (IC50 class), 11 point curve
[2] = Activity (μM) (IC50), 11 point curve
[3] = read-out: Activity (IC50 class), 11 point curve

Row | SMILES | IC50 [1] | IC50 [2] | IC50 [3]
1 | Cc1ccc(NC(=O)N2CCCC3C2C3C(F)(F)F)cc1-c1ccccn1 (mixture of isomers) [Example 98, N-(4-methyl-3-pyridin-2-ylphenyl)-7-(trifluoromethyl)-2-azabicyclo[4.1.0]heptane-2-carboxamide] | > 10 µM | 20 µM | –
2 | O=C(Nc1ccc(F)c(-c2ccc(F)cn2)c1)N1C2CCCC1C2 [Example 35, N-(4-fluoro-3-(5-fluoropyridin-2-yl)phenyl)-6-azabicyclo[3.1.1]heptane-6-carboxamide] | 1 to 10 µM | 3.5 µM | –
3 | Cc1ccc(NC(=O)C2C3CCC2CC3)cc1-c1ccccn1 (stereo not shown) [Example 73, N-(4-methyl-3-(pyridin-2-yl)phenyl)bicyclo[2.2.1]heptane-7-carboxamide] | – | 0.09 µM | 0.0001 to 1 µM
4 | Cc1nnc(C2CCCN2C(=O)Nc2ccc(C)c(-c3ccccn3)c2)o1 (racemic) [Example 87, 2-(5-methyl-1,3,4-oxadiazol-2-yl)-N-(4-methyl-3-pyridin-2-ylphenyl)pyrrolidine-1-carboxamide] | > 10 µM | 17 µM | –
5 | Cc1cnc(-c2cc(NC(=O)N3C4C[C@@H](C)C[C@H]3C4)c(F)cc2C)nn1 [Example 239, cis-N-[2-fluoro-4-methyl-5-(6-methyl-1,2,4-triazin-3-yl)phenyl]-3-methyl-6-azabicyclo[3.1.1]heptane-6-carboxamide] | – | 0.2 µM | 0.0001 to 1 µM
6 | Cc1ccc(NC(=O)N2C3CCC2c2ccccc23)cc1-c1ccccn1 [Example 8, N-[4-Methyl-3-(2-pyridyl)phenyl]-11-azatricyclo[6.2.1.02,7]undeca-2,4,6-triene-11-carboxamide] | – | 0.06 µM | 0.0001 to 1 µM
7 | Cc1ccc(NC(=O)N2CC3CCC2c2ccccc23)cc1-c1ccccn1 (stereo not shown) [Example 16, N-(4-methyl-3-(pyridin-2-yl)phenyl)-1,2,3,4-tetrahydro-1,4-(epiminomethano)naphthalene-10-carboxamide] | 1 to 10 µM | 1.1 µM | –
8 | COC(=O)C12CCCC(C1)N2C(=O)Nc1ccc(C)c(-c2ccccn2)c1 (stereo not shown) [Example 9, Methyl 6-[[4-methyl-3-(2-pyridyl)phenyl]carbamoyl]-6-azabicyclo[3.1.1]heptane-1-carboxylate] | – | 0.1 µM | 0.0001 to 1 µM
9 | Cc1ccc(NC(=O)N2C3CC2CN(c2ncccn2)C3)cc1-c1ccccn1 [Example 72, N-(4-methyl-3-(pyridin-2-yl)phenyl)-3-(pyrimidin-2-yl)-3,6-diazabicyclo[3.1.1]heptane-6-carboxamide] | 1 to 10 µM | 1.2 µM | –
10 | Cc1ccc(NC(=O)N2CC(C)C2)cc1-c1ncc(F)cn1 [Example 232, N-[3-(5-fluoropyrimidin-2-yl)-4-methylphenyl]-3-methylazetidine-1-carboxamide] | > 10 µM | 20 µM | –
11 | Cc1ccc(NC(=O)C23CC(C(F)(F)F)(C2)C3)cc1-c1ccccn1 [Example 129, N-(4-methyl-3-pyridin-2-ylphenyl)-3-(trifluoromethyl)bicyclo[1.1.1] pentane-1-carboxamide] | 1 to 10 µM | 9.1 µM | –
12 | Cc1ccc(NC(=O)C2CC3CCC2C3)cc1-c1ccccn1 (stereo not shown) [Example 147, N-(4-methyl-3-pyridin-2-ylphenyl)bicyclo[2.2.1]heptane-2-carboxamide] | – | 0.2 µM | 0.0001 to 1 µM
13 | Cc1ccc(NC(=O)[C@H]2[C@@H]3CC(F)(F)C[C@@H]32)cc1-c1cccnn1 [Example 289, trans-3,3-difluoro-N-(4-methyl-3-pyridazin-3-ylphenyl)bicyclo[3.1.0] hexane-6-carboxamide] | > 10 µM | 26 µM | –
14 | O=C(Nc1ccc(C(F)(F)F)c(-c2ccccn2)c1)[C@@H]1CC1(F)F [Example 150, (1S)-2,2-difluoro-N-[3-pyridin-2-yl-4-(trifluoromethyl)phenyl] cyclopropane-1-carboxamide] | 1 to 10 µM | 3.7 µM | –
